From article PMC6844382, “Design, synthesis and evaluation of quinolinone derivatives containing dithiocarbamate moiety as multifunctional AChE inhibitors for the treatment of Alzheimer’s disease” (Journal of Enzyme Inhibition and Medicinal Chemistry, 2019)
Entries after “also recorded” stand apart in the source; their conditions may differ. Where two headings read alike, the source gives them in different places.

Experiments:
[1] = in vitro; conditions: PAMPA
Method: (§1) Afterwards, the acceptor filter plate was carefully placed on the donor plate to make the coated membrane touch both donor solution and acceptor buffer. […] Pe was calculated by the following expression: Pe = {−VdVa/[(Vd + Va)At]}ln (1-drugacceptor/drugequilibrium), where Vd is the volume of donor well, Va is volume in acceptor well, A is the filter area, t is the permeation time, drugacceptor is the absorbance obtained in the acceptor well and drugequilibrium is the theoretical equilibrium absorbance. Each compound was analysed at five wavelengths in four wells at least three independent runs, and the results were expressed as mean ± SD.

[2] = biological target: T1, hAChE (Homo sapiens, UniProt P22303); assay: Kinetic study of hAChE inhibition (Lineweaver-Burk); format: biochemical; design: Acetylcholinesterase (AChE, from electric eel and human erythrocytes); purchased Sigma-Aldrich (St. Louis, MO, USA)
T1 sequence (P22303 32-617 isoform P22303-2 limits assumed): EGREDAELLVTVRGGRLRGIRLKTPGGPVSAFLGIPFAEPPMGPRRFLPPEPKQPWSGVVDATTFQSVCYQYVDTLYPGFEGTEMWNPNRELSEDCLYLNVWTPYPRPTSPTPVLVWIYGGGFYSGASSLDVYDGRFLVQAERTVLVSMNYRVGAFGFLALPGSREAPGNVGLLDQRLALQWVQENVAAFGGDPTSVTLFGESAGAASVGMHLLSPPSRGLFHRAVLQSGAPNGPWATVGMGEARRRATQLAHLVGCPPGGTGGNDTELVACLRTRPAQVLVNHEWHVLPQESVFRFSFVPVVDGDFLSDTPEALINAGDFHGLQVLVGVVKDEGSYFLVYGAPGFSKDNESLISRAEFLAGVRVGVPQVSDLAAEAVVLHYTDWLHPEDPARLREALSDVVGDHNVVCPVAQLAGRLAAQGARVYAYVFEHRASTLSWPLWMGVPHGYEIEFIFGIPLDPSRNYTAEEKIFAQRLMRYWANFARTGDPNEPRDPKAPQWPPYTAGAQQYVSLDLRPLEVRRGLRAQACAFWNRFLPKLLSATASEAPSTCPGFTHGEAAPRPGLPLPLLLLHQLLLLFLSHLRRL
Method: To determine the inhibition mechanism of present compounds, compound 4c was taken for kinetic analysis by Ellman’s method. Three concentrations of 4c were selected for the study, and hAChE was chosen as enzyme source. Following a similar method mentioned above in enzyme inhibition assay, Lineweaver–Burk reciprocal plots were constructed by plotting 1/velocity against 1/[substrate] at varying concentrations of the substrate acetylthiocholine (0.05 – 0.5 mM). All measurements were performed in triplicate and data analysis was performed with Graph Pad Prism 4.03 software (San Diego, CA, USA).

[3] = test system: human neuroblastoma SH-SY5Y cells; assay: Cytotoxicity on SH-SY5Y cells (MTT assay); format: cell-based; conditions: 12.5–100 µM, 24 h
Method: The cytotoxicity of test compound on the human neuroblastoma SH-SY5Y cells was evaluated by MTT assay. The SH-SY5Y cells were grown in a 1:1 mixture of Eagle's minimum essential medium (EMEM) and ham's F-12 medium supplemented with 10% foetal bovine serum (FBS), 100 U/mL penicillin and […] streptomycin in 5% CO2 at 37 °C. For assay, cells were seeded into 96-well plates at a density of 10000 cells/well and treated with compound 4c for 24 h. After this treatment, 20 μL of MTT at 37 °C was added. Four hours later, the medium was removed, and 200 μL of DMSO was added to dissolve the formazan crystal formed. The absorbance was measured using a microculture plate reader with a test wavelength of 570 nm and a reference wavelength of 630 nm. Results are expressed as the mean ± SD of three independent experiments.

[4] = biological target: T2, eqBuChE (Equus caballus, UniProt P81908); assay: In vitro inhibition of eqBuChE (Ellman method); format: biochemical, equine; conditions: read-out: eqBuChE Inhibition (%)
T2 construct: eqBuChE (from equine serum); purchased Sigma-Aldrich (St. Louis, MO, USA); host or cells: equine serum
T2 sequence (P81908 whole entry): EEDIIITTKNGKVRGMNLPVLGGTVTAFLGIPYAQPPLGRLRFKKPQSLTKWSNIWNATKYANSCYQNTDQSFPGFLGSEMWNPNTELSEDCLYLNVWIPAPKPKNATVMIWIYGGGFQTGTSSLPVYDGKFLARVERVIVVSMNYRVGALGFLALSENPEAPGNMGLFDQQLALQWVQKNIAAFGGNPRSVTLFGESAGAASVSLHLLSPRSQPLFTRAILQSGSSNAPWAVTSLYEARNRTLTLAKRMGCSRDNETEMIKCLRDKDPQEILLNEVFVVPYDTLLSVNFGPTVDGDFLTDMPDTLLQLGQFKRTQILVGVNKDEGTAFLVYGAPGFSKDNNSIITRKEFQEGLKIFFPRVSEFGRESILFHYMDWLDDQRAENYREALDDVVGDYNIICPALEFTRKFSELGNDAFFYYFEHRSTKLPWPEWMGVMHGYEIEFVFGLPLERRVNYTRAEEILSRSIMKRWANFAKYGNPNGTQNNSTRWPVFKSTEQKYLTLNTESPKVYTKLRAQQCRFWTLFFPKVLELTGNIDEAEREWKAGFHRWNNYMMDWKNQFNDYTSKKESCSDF
Method: (§2) The in vitro inhibitory activities of test compounds against AChE and BuChE were determined by the spectrophotometric method of Ellman[25]. […] For each assay, 160 μL of 1.5 mM DTNB, 50 μL of AChE (0.22 U/mL for eeAChE; 0.05 U/mL for hAChE) or eqBuChE (0.12 U/mL) were incubated with 10 μL of different concentrations of test compounds at 37 °C for 6 min.

[5] = biological target: T3, self-induced Aβ1-42 aggregation (Homo sapiens, UniProt P05067); assay: Inhibition of self-induced Aβ1-42 aggregation (ThT assay); format: biochemical; conditions: read-out: Inhibition of Aβ1–42 aggregation (%) Self-induced
T3 construct: Aβ1-42 was obtained from Royobiotech Co., Ltd (Shanghai, China); purchased Royobiotech Co., Ltd (Shanghai, China)
T3 sequence (P05067 672-713): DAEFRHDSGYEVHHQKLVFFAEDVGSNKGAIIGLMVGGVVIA
Method: The inhibitory activities of compounds 4c-f and 9a-b on self-induced Aβ1-42 aggregation were also measured by the ThT assay. HFIP and ThT were purchased from TCI (Shanghai) Development. Aβ1-42 was obtained from Royobiotech Co., Ltd (Shanghai, China). The monomeric Aβ1-42 samples were prepared by HFIP and diluted with a 50 mM phosphate buffer (pH 7.4) to give a 25 μM solution. The test compound was dissolved in DMSO (250 μM) for storage and needed not to be diluted prior to use. […]. Then, 200 μL of 5 μM ThT in 50 mM glycine-NaOH buffer (pH 8.0) was added, and the percent inhibition was calculated by the method same as that of AChE-induced Aβ1–42 experiment.

[6] = biological target: T4, AChE-induced Aβ1-42 aggregation (Electrophorus electricus, UniProt O42275); assay: Inhibition of AChE-induced Aβ1-42 aggregation (ThT assay); format: biochemical; conditions: inhibitor 100 μM; thioflavin-T fluorescence
T4 construct: eeAChE (from electric eel); purchased eeAChE: Sigma-Aldrich (St. Louis, MO, USA); Aβ1-42: Royobiotech Co., Ltd (Shanghai, China)
T4 sequence (O42275 24-633): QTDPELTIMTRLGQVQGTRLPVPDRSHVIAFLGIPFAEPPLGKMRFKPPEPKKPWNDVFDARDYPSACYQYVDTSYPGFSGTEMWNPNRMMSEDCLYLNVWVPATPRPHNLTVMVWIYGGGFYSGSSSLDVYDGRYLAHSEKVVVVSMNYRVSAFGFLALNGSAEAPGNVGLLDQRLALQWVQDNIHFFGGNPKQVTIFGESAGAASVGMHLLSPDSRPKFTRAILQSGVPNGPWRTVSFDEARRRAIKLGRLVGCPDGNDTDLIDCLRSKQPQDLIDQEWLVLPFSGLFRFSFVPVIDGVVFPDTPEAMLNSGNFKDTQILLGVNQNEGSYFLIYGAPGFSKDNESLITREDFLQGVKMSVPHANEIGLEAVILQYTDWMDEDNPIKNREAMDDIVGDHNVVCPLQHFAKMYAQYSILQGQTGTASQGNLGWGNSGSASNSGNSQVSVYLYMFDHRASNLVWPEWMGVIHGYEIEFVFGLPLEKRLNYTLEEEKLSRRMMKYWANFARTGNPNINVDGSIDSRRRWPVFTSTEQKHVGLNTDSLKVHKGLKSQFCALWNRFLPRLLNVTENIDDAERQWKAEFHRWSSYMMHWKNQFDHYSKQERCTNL
Method: 1, 1, 1, 3, 3, 3-hexafluoro-2-propanol (HFIP) and Thioflavin T (ThT) were obtained from TCI (Shanghai) Development. β-Amyloid1-42 (Aβ1-42), supplied as trifluoroacetate salt, and eeAChE were purchased from Royobiotech Co., Ltd (Shanghai, China) and Sigma-Aldrich (St. Louis, MO, USA), respectively. For co-incubation experiments, aliquots of Aβ1-42 peptide and AChE in presence or absence of the test compounds were incubated for 48 h at 37 °C. […] The percent inhibition of the AChE-induced Aβ aggregation due to the presence of inhibitor was calculated by the following formula: 100 – (IFi/IFo*100), where IFi and IFo are the fluorescence intensities obtained for Aβ1-42 aggregation in the presence and in the absence of inhibitor, respectively. Each assay was run in triplicate and each reaction was repeated at least three independent times.

[7] = biological target: T1, hAChE; assay: In vitro inhibition of hAChE (Ellman method); format: biochemical; design: Acetylcholinesterase (AChE, from electric eel and human erythrocytes); purchased Sigma-Aldrich (St. Louis, MO, USA); host or cells: human erythrocytes
Method: as §2

[8] = test system: Kunming mice; assay: Acute oral toxicity study; format: in vivo; conditions: oral, 625, 1250 and 2500 mg/kg, observed 14 days
Method: A total of 40 Kunming mice (half male and half female) were used to determine the acute toxicity of compound 4c[31]^,[32]. All mice weighting 18–25 g were obtained from Hunan SJA Laboratory Animal Co., Ltd. and randomly divided into corresponding groups. They were maintained under a 12 h light/dark cycle and allowed free access to tap water and standard laboratory chow. The room was maintained at temperature of 23 ± 2 °C with a relative humidity of 55 ± 5%. Prior to dosing, all animals were acclimated to this environment for 5 days. Compound 4c was suspended in 0.5% carboxymethyl cellulose sodium (CMC-Na) salt solution and given via oral administration to the divided experimental groups (0, 625, 1250 and 2500 mg/kg, n = 10 per group). After administration, animals were observed continuously for the first 4 h for any abnormal behavioural changes or deaths, then intermittently for the next 24 h, and occasionally thereafter for 14 days for the onset of any delayed effects. On the 14th day, all mice were sacrificed after being anaesthetized by ether, and the possible toxic damage to liver, heart and kidneys was examined macroscopically.

[9] = from PAMPA-BBB Pe
Method: as §1

[10] = biological target: T5, eeAChE (Electrophorus electricus, UniProt O42275); assay: In vitro inhibition of eeAChE (Ellman method); format: biochemical, electric eel
T5 construct: eeAChE (from electric eel); purchased Sigma-Aldrich (St. Louis, MO, USA); host or cells: electric eel
T5 sequence (O42275 24-633): as above
Method: as §2

Structure (SMILES) | Papp at 18 h, 25 μg/mL [1] [×10⁻⁶ cm/s] | type of inhibition ([2]; Lineweaver-Burk plots, hAChE, 0.1, 0.2, 0.4 μM inhibitor) | Ki ([2]; replots of slope versus concentration of 4c, hAChE, read-out: competitive inhibition constant Ki) [nM] | effect on cell viability (cytotoxicity) [3] | inhibition at 10 µM [4] [%] | inhibition at 25 µM [5] [%] | inhibition at 100 µM [6] [%] | IC50 [7] [nM] | fold more potent on hAChE than tacrine ([7]; ratio of hAChE IC50 values) [fold] | acute toxicity [8] | Prediction of penetration into CNS [9] | IC50 [10] [nM] | times more potent than galanthamine on AChE ([10]; ratio of eeAChE IC50 values) [times] | fold less inhibitory activity than compound 4c on AChE ([10]; ratio of eeAChE IC50 values) [fold] | inhibition at 25 µM ([5]; inhibitor 25 μM, thioflavin-T fluorescence) [%]
O=c1ccc2ccc(OCCCCSC(=S)N3CCCCC3)cc2[nH]1 [4c, 4-((2-oxo-1,2-dihydroquinolin-7-yl)oxy)butyl piperidine-1-carbodithioate] | 8.91 ± 2.03 | mixed-type inhibitor; also recorded: mixed-type inhibition | 225 | did not show a significant effect on cell viability; also recorded: negligible toxicity; also recorded: no toxicity | 45.4 ± 8.34 | 30.7 ± 6.54 | 29 ± 2.06 | 160 ± 20 | ~3 | no evident toxicity signs; also recorded: no significant acute toxicity; also recorded: well tolerated | CNS+ (CNS + is predicted as high BBB permeation with Pe (×10^6 cm/s) > 3.33) | 220 ± 30 | 7.5 | – | –
O=c1ccc2ccc(OCCCCCSC(=S)N3CCCCC3)cc2[nH]1 [4d, 5-((2-oxo-1,2-dihydroquinolin-7-yl)oxy)pentyl piperidine-1-carbodithioate] | 8.82 ± 1.34 | – | – | – | 20.9 ± 2.61 | 26 ± 3.01 | 24.1 ± 3.04 | 570 ± 10 | – | – | CNS+ (CNS + is predicted as high BBB permeation with Pe (×10^6 cm/s) > 3.33) | 240 ± 20 | – | – | –
O=c1ccc2ccc(OCCCCCCSC(=S)N3CCCCC3)cc2[nH]1 [4e, 6-((2-oxo-1,2-dihydroquinolin-7-yl)oxy)hexyl piperidine-1-carbodithioate] | 9.85 ± 0.98 | – | – | – | 17.5 ± 2.17 | 25.8 ± 1.43 | 20.3 ± 2.21 | 380 ± 20 | – | – | CNS+ (CNS + is predicted as high BBB permeation with Pe (×10^6 cm/s) > 3.33) | 350 ± 20 | – | – | –
CC1CCN(C(=S)SCCCCOc2ccc3ccc(=O)[nH]c3c2)CC1 [4f, 4-((2-oxo-1,2-dihydroquinolin-7-yl)oxy)butyl 4-methylpiperidine-1-carbodithio-ate] | 6.3 ± 0.86 | – | – | – | 37.2 ± 1.22 | 20.4 ± 3.22 | 12.1 ± 3.18 | 1210 ± 330 | – | – | CNS+ (CNS + is predicted as high BBB permeation with Pe (×10^6 cm/s) > 3.33) | 690 ± 220 | – | 3 | –
Cc1cc(=O)[nH]c2cc(OCCCCSC(=S)N3CCCCC3)ccc12 [9a, 4-((4-methyl-2-oxo-1,2-dihydroquinolin-7-yl)oxy)butylpiperidine-1-carbodithioate] | 8.79 ± 2.1 | – | – | – | 18.3 ± 3.15 | 33.4 ± 4.85 | 14.2 ± 2.85 | 760 ± 100 | – | – | CNS+ (CNS + is predicted as high BBB permeation with Pe (×10^6 cm/s) > 3.33) | 300 ± 120 | – | – | –
Cc1c(C)c2ccc(OCCCCSC(=S)N3CCCCC3)cc2[nH]c1=O [9b, 4-((3,4-dimethyl-2-oxo-1,2-dihydroquinolin-7-yl)oxy)butylpiperidine-1-carbodithioate] | 8.67 ± 1.76 | – | – | – | 21.2 ± 1.6 | 35.3 ± 2.17 | 24.4 ± 3.03 | 390 ± 10 | – | – | CNS+ (CNS + is predicted as high BBB permeation with Pe (×10^6 cm/s) > 3.33) | 340 ± 10 | – | – | –
COc1cc(/C=C/C(=O)CC(=O)/C=C/c2ccc(O)c(OC)c2)ccc1O [Curcumin, reference compound] | – | – | – | – | – | – | – | – | – | – | – | – | – | – | 37.3 ± 2.76
